{"source": "patent US20190290623A1", "about": "“USE OF TIOTROPIUM BROMIDE TO PREVENT PULMONARY OXYGEN TOXICITY” (priority 2018, published 2019)", "type_in_all_cases": "in vivo", "key": {"[1]": {"test_system": "swine exposed to 2.5 ATA hyperbaric oxygen for 5.5 hr", "assay": "Experiment 2 deep exposure simulation: Impulse Oscillometry (IOS)", "conditions": "2.5 ATA O2 5.5 hr, post-dive normalized to baseline, n=6/arm", "protocol": "Experiment 2 is designed to evaluate the efficacy of tiotropium bromide pre-dive with respect to reducing decrements in pulmonary function due to PO2T following a 5.5 hour, 2.5 ATA hyperbaric oxygen exposure. This dive profile was selected because it caused the most significant pulmonary function deficits in humans with minimal risk of seizure due to CNS oxygen toxicity.\n(§1) Hyperbaric Exposures: Individual animals were then placed into a Plexiglas box (30 in.×42 in.×38 in., manufactured in-house) within a Multiple Large Animal Chamber (MLAC), which is a steel-hulled hyperbaric chamber (450-cubic ft. floodable volume and pressure tested to 1,230 feet of seawater [fsw] equivalent) (Bethlehem Steel Corp, Bethlehem Pa.). Pressure/depth was monitored by a CPG 2500 Digital Pressure Gauge (Mensor Corp., San Marcos, Tex.). Swine were dove in pairs with each treatment group represented. Swine box assignment was alternated with respect to treatment to avoid any effects associated with individual box environmental features. Animals were monitored via closed-circuit television to observe signs of distress related to middle ear barotrauma (e.g. head shaking, nystagmus) and seizure activity. Oxygen concentration was measured and recorded using a portable O2 analyzer (Teledyne Analytical Inst, City of Industry, Calif.). […]"}, "[2]": {"test_system": "swine exposed to 2.5 ATA hyperbaric oxygen for 5.5 hr", "assay": "Experiment 2: lung wet-dry ratio", "conditions": "2.5 ATA O2 5.5 hr; n=13; mean ± SEM; p=0.4566 vs saline", "excerpt": "Lungs were collected from the swine during necropsy. The right lung was collected for measurement of wet-dry ratios. The left lung was fixed via tracheal instillation at a standard pressure of 25 cmH2O with 10% neutral buffered formalin (NBF). The lungs were then sectioned into ten, one centimeter (cm) cranial to caudal serial sections. Three, 1 cm blocks were cut from each section and post-fixed in 10% NBF, trimmed, embedded in paraffin and cut into 5 μm sections for histological staining. Histology slides were de-paraffinized and stained with hematoxylin and eosin. A board-certified veterinary pathologist blinded to group randomization reviewed all gross necropsies, images, and histology slides.\nAll data were compiled into Excel spreadsheets then imported into Graphpad Prism 7.02 for statistical analysis. […] To allow for accurate data comparison between animals and/or groups the pressure volume curves were separated into inspiratory arms (0 to 40 cm H2O) and expiratory arms (40 to −40 cm H2O). Each arm was then fit using a non-linear regression utilizing a Gaussian distribution model. Volume data was then extrapolated from the curve corresponding to pressures from 0 to 40 cmH2O at 2.5 cm H2O increments. Statistical group-wise comparison of the extrapolated inspiratory and expiratory arms were conducted using repeated measures two-way ANOVA. […]"}, "[3]": {"test_system": "swine exposed to 2.5 ATA hyperbaric oxygen for 5.5 hr", "assay": "Experiment 2: heart rate variability (SDNN)", "conditions": "2.5 ATA O2 5.5 hr; mean+/−SEM; p=0.0331 vs saline", "protocol": "The swine were prepared for ECG recording as described previously. Briefly, using an electric shaver, ECG areas were prepared bilaterally, posterior to the shoulder, lateral to the vertebrae, at approximately 4-7 cm above ribs 5-7 (bipolar derivation). Another area was prepared 2 cm lateral to the vertebrae on right side, between ribs 12-13. Newly exposed skin was rubbed with isopropyl alcohol. Disposable pre-wired (Grass Technologies/Astro-Med, Inc. Warwick, Mass.) or SF405 (KENDALL MEDI-TRACE™, Tyco Healthcare, Mansfield, Mass.) self-adhesive Ag/AgCl electrodes were placed on the proximal, symmetric sites and the ground electrode was placed at the distal site (between ribs 12-13). […]\nWideband AC amplifiers (Grass, Quincy, Mass.) were used for EEG and ECG recordings; a 0.5-35 Hz and 60 cycle notch filter setting was used. […] Heart rate variability (HRV) was calculated from pre-dive ECG epochs of at least 2 min durations using the Labchart ECG tool suite. […] Above the manually set trigger level the LabChart software looked for maximum values and measured the time interval between peaks (maximal amplitude of R-wave). […] The length of measured periods were: (1) 114.995 sec; peak-to-peak distance 0.750 t 0.0004 sec; 153 peaks; FFT 1.329 Hz=79.74 bpm; and (2) 326.52 sec; peak-to-peak distance 0.750±0.0003; 434 peaks; FFT 1.332 Hz=79.92 bpm. […]"}, "[4]": {"test_system": "swine exposed to 2.5 ATA hyperbaric oxygen for 5.5 hr", "assay": "Experiment 2: adverse reactions / seizure observation", "conditions": "2.5 ATA oxygen exposure", "excerpt": "as §1, with “Calif.). After positioning the animal inside the Plexiglas box, the MLAC was sealed and pressurized using air at the rate of I ATA/minute to a depth of 2.5 ATA. After 2.5 min at a bottom depth equivalent to 2.5 ATA, the breathing gas was switched to 100% O2 and maintained for 5.5 Hrs. After completing 5.5 Hrs on 100% O2, the inspired gas was switched back to air for 3 min. Then, the chamber was decompressed at 1 ATA/minute.” for “Calif.).”"}}, "note": "Entries after “also recorded” stand apart in the source; their conditions may differ.", "data": [{"smiles": "C[N+]1(C)[C@@H]2C[C@@H](OC(=O)C(O)(c3cccs3)c3cccs3)C[C@H]1[C@@H]1O[C@@H]12", "note": "[Tiotropium, tiotropium bromide]", "values": [{"measurement": "IOS resistance in saline treated controls when compared to Tiotropium treated swine", "setting": "[1]; all frequencies, p=0.0421", "result": "significant decrease in resistance"}, {"measurement": "IOS reactance in saline treated controls when compared to Tiotropium treated swine", "setting": "[1]; p=0.0587", "result": "decrease in reactance which approached significance; also recorded: decrease in reactance, which approached significance"}, {"measurement": "Wet-Dry ratios of lung", "setting": "[2]", "result": "6.067±0.2305"}, {"measurement": "Post-dive SDNN normalized to the pre-dive SDNN", "setting": "[3]", "result": "103.5+/−15.87"}, {"measurement": "adverse reactions (including seizure)", "setting": "[4]", "result": "no adverse reactions"}]}]}
